In patent US20250281478A1, “METHODS FOR PREVENTING OR TREATING KIDNEY DISEASES” (JEAMOON BEIJING CO., LTD., priority 2022, published 2025):

Key:
[1] = system: mice with sustained adenine-induced renal failure; experiment: Glomerular filtration rate in mice with sustained adenine-induced renal failure (TGFR system); assay type: in vivo, C57BL/6N mice; details: 3 weeks continuous 0.25% adenine diet, FIG. 4
Protocol: (§1) • a) Control group: Fed with adenine-free feed; other procedures were the same as those in the model group. • b) Model group: Fed with feed containing 0.25% adenine for modelling. • c) LY-10 mg/kg group: Model+LY2922470 (10 mg/kg, p.o., QD). • d) LY-30 mg/kg group: Model+LY2922470 (30 mg/kg, p.o., QD). • e) LY-60 mg/kg group: Model+LY2922470 (60 mg/kg, p.o., QD). • f) TAK875 group: Model+TAK875 (30 mg/kg, p.o., QD).
(§2) Except for the control group, all other mice were fed with a diet containing 0.25% adenine for modelling. The control group was fed with a normal diet. All mice were allowed free access to food. One week after modeling, each group of mice was administered the respective treatment via oral gavage once daily in the afternoon for two consecutive weeks. The control group and the model group received vehicle under a same condition. The adenine-containing diet was continuously administered for modeling throughout the treatment period until the end of the experiment. The physical condition of the mice was monitored, and body weight was measured and recorded weekly. Blood samples were collected from the orbital venous plexus at 1 week (post-modeling) and 3 weeks (after 2 weeks of treatment). Serum was separated for the measurement of serum creatinine (CRE) and blood urea nitrogen (BUN). At the end of the two-week treatment, renal function of each group was assessed using a TGFR renal function monitoring and smart analysis system. After testing, tissues were collected from the mice to confirm the efficacy of the treatment.
(§3) Statistical analyses were performed using GraphPad Prism 8.0 software. Continuous data of each group were expressed as mean+SD. One-way ANOVA was used for multi-group comparisons, and Student's t-test was used for comparisons between two groups. A p-value<0.05 was considered statistically significant. For categorical data, chi-square tests were used to compare between groups, with p<0.05 indicating a statistically significant difference.
One week later, LY2922470 or TAK875 was administrated for treatment. […]

[2] = system: mice with two-week adenine-induced renal failure; experiment: Glomerular filtration rate in mice with two-week adenine-induced renal failure; assay type: in vivo, C57BL/6N mice; details: adenine diet replaced with normal chow after two weeks; LY2922470 p.o.; FIG. 5
Excerpt: Therefore, the modeling protocol was redesigned to re-evaluate the therapeutic effect of LY2922470 on renal failure (the adenine diet was replaced with normal chow after two weeks of feeding; other conditions remained unchanged).

[3] = system: mice with adenine-induced renal failure; experiment: Serum creatinine (CREA) in adenine-induced renal failure mice; assay type: in vivo, C57BL/6N mice; details: for CREA after modeling for 3 weeks (after drug administration for 2 weeks) / CREA after modeling for 1 week (before drug administration): mean ± SD
Protocol: as §1, §2, §3
(§4) Mice were fed a 0.25% adenine-containing diet. After one week, the mice were treated with LY2922470 or TAK875. During the treatment period, the adenine-containing diet was continued for modeling. After three weeks of adenine feeding (i.e., two weeks of drug administration), blood samples were collected from the mice, and serum was isolated for CREA and BUN measurements.

[4] = system: mice with adenine-induced renal failure; experiment: Blood urea nitrogen (BUN) in adenine-induced renal failure mice; assay type: in vivo, C57BL/6N mice; details: for BUN after modeling for 3 weeks (after drug administration for 2 weeks) / BUN after modeling for 1 week (before drug administration): mean ± SD
Protocol: as §1, §2, §3, §4

[5] = system: TGF-β1-induced HK-2 cells; experiment: RT-PCR of fibrosis markers in TGF-β1-induced HK-2 cells; assay type: cell-based, human; details: 10 ng/ml TGF-β1 + LY2922470 10, 50, 500 nM, 48 hours, FIG. 7
Protocol: • Group A: Control • Group B: TGF-β1 (10 ng/ml) • Group C: TGF-β1 (10 ng/ml)+LY (10 nM) • Group D: TGF-β1 (10 ng/ml)+LY (50 nM) • Group E: TGF-1 (10 ng/ml)+LY (500 nM)
(§5) HK-2 cells were cultured in MEM supplemented with 10% FBS and 1% penicillin-streptomycin solution. The HK-2 cells were taken from liquid nitrogen and quickly thawed in a 37° C. water bath, gently agitated to thaw the cryopreservation medium. After thawing, the cell suspension was transferred to a centrifuge tube containing 3 mL of culture medium and centrifuged at 1000 rpm for 5 min at room temperature to collect the cells. The supernatant was discarded. The cell pellet was resuspended in complete medium (10% FBS) and seeded into culture dishes. The cells were gently pipetted to ensure uniform distribution and incubated at 37° C. with 5% CO2 and saturated humidity.
HK-2 cells in a logarithmic growth phase and with good viability were seeded into 24-well plates at a density of 1×10^5 cells/well. Once the cells reached 40-50% confluence, treatments were applied according to the grouping described above: Group A: HK-2 cells were cultured normally; Group B was treated with 10 ng/ml TGF-β1; Group C was treated with 10 ng/ml TGF-β1 and 10 nM LY2922470; Group D was treated with 10 ng/ml TGF-β1 and 50 nM LY2922470; and Group E was treated with 10 ng/ML TGF-β1 and 500 nM LY2922470. […]

[6] = system: high glucose-induced HK-2 cells; experiment: RT-PCR of fibrosis markers in high glucose-induced HK-2 cells; assay type: cell-based, human; details: 25 mM D-glucose + LY2922470 10, 50, 500 nM, 48 hours, FIG. 8
Protocol: • Group A: Control • Group B: HG (25 mM) • Group C: HG (25 mM)+LY (10 nM) • Group D: HG (25 mM)+LY (50 nM) • Group E: HG (25 mM)+LY (500 nM)
as §5
Once cells reached 40%-50% confluency, they were treated according to the grouping described above: Group A received normal HK-2 culture; Group B was treated with 25 mM D-glucose (high glucose); Group C was treated with 25 mM D-glucose and 10 nM LY2922470; Group D was treated with 25 mM D-glucose and 50 nM LY2922470; and Group E was treated with 25 mM D-glucose and 500 nM LY2922470. After 48 hours of culture, samples were collected from each group for RT-PCR analysis.

[7] = LY2922470 30 mg/kg p.o. QD for 2 weeks
[8] = LY2922470 at different doses p.o. QD for 2 weeks
[9] = based on Tables 2 and 3 (CREA and BUN), p.o.
[10] = baseline of the LY2922470 10 mg/kg group
[11] = baseline of the LY2922470 30 mg/kg group
[12] = baseline of the LY2922470 60 mg/kg group

CC#C[C@@H](CC(=O)O)c1ccc(OCc2ccc(CN3CCCc4cccc(OC)c43)s2)cc1 [LY2922470]
Renal function (GFR) improvement among the doses [1, 7]: most significant improvement | Renal function (GFR) compared with the model group ([1]; LY2922470 at different doses (10, 30, 60 mg/kg p.o. QD) for 2 weeks): improved | Renal function (GFR) compared with the model group [2]: significantly improved | CREA level compared with the model group [3, 7]: significantly decreased | CREA after modeling for 3 weeks (after drug administration for 2 weeks) ([3]; LY2922470 30 mg/kg p.o. QD): 79.67 ± 19.28 µmol/L | CREA level compared with the model group ([3]; LY2922470 60 mg/kg p.o. QD for 2 weeks): significantly decreased | CREA after modeling for 3 weeks (after drug administration for 2 weeks) ([3]; LY2922470 60 mg/kg p.o. QD): 66.47 ± 13.35 µmol/L | Serum CREA level compared with the model group [3, 8]: reduced | Dose with the best effect (CREA, BUN) [3, 9]: 30 mg/kg/day | Doses with therapeutic efficacy (CREA, BUN) [3, 9]: 30 to 60 mg/kg/day | CREA after modeling for 1 week (before drug administration) [3, 10]: 56.14 ± 13.41 µmol/L | CREA after modeling for 1 week (before drug administration) [3, 11]: 54.85 ± 17.55 µmol/L | CREA after modeling for 1 week (before drug administration) [3, 12]: 57.02 ± 11.90 µmol/L | BUN level compared with the model group [4, 7]: statistically significant reduction | BUN after modeling for 3 weeks (after drug administration for 2 weeks) ([4]; LY2922470 30 mg/kg p.o. QD): 15.15 ± 4.53 mmol/L | BUN after modeling for 3 weeks (after drug administration for 2 weeks) ([4]; LY2922470 60 mg/kg p.o. QD): 13.85 ± 1.33 mmol/L | Serum BUN level compared with the model group [4, 8]: reduced | BUN after modeling for 1 week (before drug administration) [4, 10]: 10.34 ± 3.55 mmol/L | BUN after modeling for 1 week (before drug administration) [4, 11]: 10.25 ± 3.42 mmol/L | BUN after modeling for 1 week (before drug administration) [4, 12]: 10.40 ± 3.83 mmol/L | Expression level of Fibronectin (RT-PCR) compared to the TGF-β1 group [5]: dose-dependent decrease | Expression level of α-SMA (RT-PCR) compared to the TGF-β1 group [5]: dose-dependent decrease | Expression level of Fibronectin (RT-PCR) compared to the high-glucose group [6]: reduced | Expression level of α-SMA (RT-PCR) compared to the high-glucose group [6]: reduced
